Where “and” joins values, the source holds several entries; their conditions need not be identical. Identical values can stand only once.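 Growth conditions: 96-well plates. Treatment: test compound, 48 hours, 5 concentrations. Analysis: linear interpolation between bracketing concentrations; unreached endpoints set to highest concentration. GI50: concentration for 50% inhibition of growth. TGI: total growth inhibition.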
Experiments:
Assay in all cases: growth of human tumour cells (NCI), 48 h
SNB-19 CNS = tested on: SNB-19 CNS
SK-MEL-2 melanoma = tested on: SK-MEL-2 melanoma
K-562 leukemia = tested on: K-562 leukemia
TK-10 renal = tested on: TK-10 renal
NCI-H23 lung = tested on: NCI-H23 lung
NCI-H226 lung = tested on: NCI-H226 lung
A549 NSCLC = tested on: A549 NSCLC
OVCAR-4 ovarian = tested on: OVCAR-4 ovarian
786-0 renal = tested on: 786-0 renal
MALME-3M melanoma = tested on: MALME-3M melanoma
RXF 393 renal = tested on: RXF 393 renal
A498 renal = tested on: A498 renal
DU-145 prostate = tested on: DU-145 prostate
HL-60(TB) leukemia = tested on: HL-60(TB) leukemia
SNB-75 CNS = tested on: SNB-75 CNS
MDA-MB-435 = tested on: MDA-MB-435
SN12C renal = tested on: SN12C renal
DMS 273 small cell lung = tested on: DMS 273 small cell lung
SF-268 CNS = tested on: SF-268 CNS
SF-539 CNS = tested on: SF-539 CNS
HCT-15 colon = tested on: HCT-15 colon
DMS 114 small cell lung = tested on: DMS 114 small cell lung
SW-620 colon = tested on: SW-620 colon
ACHN renal = tested on: ACHN renal
M14 melanoma = tested on: M14 melanoma
LOX IMVI melanoma = tested on: LOX IMVI melanoma
M19-MEL melanoma = tested on: M19-MEL melanoma
HCT-116 colon = tested on: HCT-116 colon
PC-3 prostate = tested on: PC-3 prostate
CCRF-CEM leukemia = tested on: CCRF-CEM leukemia
KM12 colon = tested on: KM12 colon
NCI-H522 lung = tested on: NCI-H522 lung
CAKI-1 renal = tested on: CAKI-1 renal
UACC-62 melanoma = tested on: UACC-62 melanoma
MOLT-4 leukemia = tested on: MOLT-4 leukemia
SR leukemia = tested on: SR leukemia
UO-31 renal = tested on: UO-31 renal
BT-549 breast = tested on: BT-549 breast
MDA-N = tested on: MDA-N
MCF7 breast = tested on: MCF7 breast
MDA-MB-231 breast = tested on: MDA-MB-231 breast
IGROV1 ovarian = tested on: IGROV1 ovarian
RPMI-8226 leukemia = tested on: RPMI-8226 leukemia
HS 578T breast = tested on: HS 578T breast
KM20L2 colon = tested on: KM20L2 colon
OVCAR-8 ovarian = tested on: OVCAR-8 ovarian
NCI-H460 lung = tested on: NCI-H460 lung
EKVX NSCLC = tested on: EKVX NSCLC
UACC-257 melanoma = tested on: UACC-257 melanoma
U251 CNS = tested on: U251 CNS
SK-MEL-28 melanoma = tested on: SK-MEL-28 melanoma
SNB-78 CNS = tested on: SNB-78 CNS
XF 498 CNS = tested on: XF 498 CNS

COc1cccc2c1C(CO)N1C(C#N)C3CC(C(=O)O)C(C1C2)N3C (stereo not given)
GI50 (SNB-19 CNS): 0.212 µM
TGI (SNB-19 CNS): > 15.5 µM
GI50 (SK-MEL-2 melanoma): 0.139 µM
TGI (SK-MEL-2 melanoma): 2.32 µM and 0.305 µM
GI50 (K-562 leukemia): 0.275 µM
TGI (K-562 leukemia): > 100 µM
TGI (TK-10 renal): 9.27 µM
GI50 (NCI-H23 lung): 0.222 µM
TGI (NCI-H23 lung): 4.42 µM and 0.558 µM
GI50 (NCI-H226 lung): 2.47 µM and 0.327 µM
TGI (NCI-H226 lung): 5.38 µM and 1.23 µM
GI50 (A549 NSCLC): 4.74 µM
GI50 (OVCAR-4 ovarian): 0.705 µM
TGI (OVCAR-4 ovarian): 27 µM
GI50 (786-0 renal): 0.236 µM
TGI (786-0 renal): 3.8 µM and 0.757 µM
GI50 (MALME-3M melanoma): 0.458 µM
TGI (MALME-3M melanoma): 4.6 µM and 1.23 µM
GI50 (RXF 393 renal): 0.203 µM
TGI (RXF 393 renal): 1.85 µM and 0.571 µM
GI50 (A498 renal): 0.304 µM
GI50 (DU-145 prostate): 0.365 µM
TGI (DU-145 prostate): > 100 µM
GI50 (HL-60(TB) leukemia): 0.239 µM
TGI (HL-60(TB) leukemia): 4.53 µM and 0.811 µM
GI50 (SNB-75 CNS): 0.298 µM
TGI (SNB-75 CNS): 5.42 µM and 1.99 µM
GI50 (MDA-MB-435): 0.168 µM
GI50 (SN12C renal): 0.373 µM
TGI (SN12C renal): 8.34 µM and > 17.8 µM
GI50 (DMS 273 small cell lung): 0.335 µM
TGI (DMS 273 small cell lung): 8.25 µM
GI50 (SF-268 CNS): 0.313 µM
TGI (SF-268 CNS): 8.75 µM and 57.3 µM
GI50 (SF-539 CNS): 0.195 µM
TGI (SF-539 CNS): 3.11 µM and 1.02 µM
GI50 (HCT-15 colon): 0.38 µM
GI50 (DMS 114 small cell lung): 0.159 µM
GI50 (SW-620 colon): 0.467 µM
GI50 (ACHN renal): 0.294 µM
GI50 (M14 melanoma): 0.363 µM
TGI (M14 melanoma): 6.91 µM and 1.42 µM
GI50 (LOX IMVI melanoma): 0.254 µM
GI50 (M19-MEL melanoma): 0.256 µM
GI50 (HCT-116 colon): 0.337 µM
TGI (HCT-116 colon): 5.59 µM
GI50 (PC-3 prostate): 0.462 µM
TGI (PC-3 prostate): > 100 µM
GI50 (CCRF-CEM leukemia): 0.0877 µM
TGI (CCRF-CEM leukemia): 8.55 µM and > 17 µM
GI50 (KM12 colon): 0.679 µM
TGI (KM12 colon): 8.3 µM and > 26 µM
GI50 (NCI-H522 lung): 0.238 µM
TGI (NCI-H522 lung): 0.874 µM and 0.389 µM
GI50 (CAKI-1 renal): 0.404 µM
GI50 (UACC-62 melanoma): 0.192 µM
TGI (UACC-62 melanoma): 2.23 µM and 0.452 µM
GI50 (MOLT-4 leukemia): 0.0934 µM
GI50 (SR leukemia): 0.0308 µM
TGI (SR leukemia): 7.2 µM
GI50 (UO-31 renal): 0.365 µM
TGI (UO-31 renal): 4.36 µM and 2.46 µM
TGI (BT-549 breast): 0.739 µM and 1.94 µM
TGI (MDA-N): 0.635 µM and 2.25 µM
TGI (MCF7 breast): > 44 µM
GI50 (MDA-MB-231 breast): 0.271 µM
TGI (MDA-MB-231 breast): 0.933 µM and 0.521 µM
TGI (IGROV1 ovarian): 9.67 µM and 4.64 µM
GI50 (RPMI-8226 leukemia): 0.0637 µM
TGI (RPMI-8226 leukemia): 3.94 µM and 1.54 µM
GI50 (HS 578T breast): 0.538 µM
TGI (HS 578T breast): 3.08 µM
GI50 (KM20L2 colon): 0.207 µM
GI50 (OVCAR-8 ovarian): 0.372 µM
GI50 (NCI-H460 lung): 1.24 µM
GI50 (EKVX NSCLC): 0.734 µM
TGI (EKVX NSCLC): 10.6 µM
GI50 (UACC-257 melanoma): 0.331 µM
TGI (UACC-257 melanoma): 3.96 µM and 2.11 µM
GI50 (U251 CNS): 0.0787 µM
GI50 (SK-MEL-28 melanoma): 0.391 µM
TGI (SK-MEL-28 melanoma): 3.83 µM and 1.88 µM
GI50 (SNB-78 CNS): 0.334 µM
TGI (SNB-78 CNS): 7.97 µM and 12 µM
GI50 (XF 498 CNS): 1.79 µM

CCCCCCCCCCCCCCCCCCOP(=O)([O-])OC1CC[N+](C)(C)CC1
GI50 (SNB-19 CNS): 5.02 µM
TGI (SNB-19 CNS): > 10 µM and 23.2 µM
GI50 (SK-MEL-2 melanoma): 8.48 µM
TGI (SK-MEL-2 melanoma): > 10 µM and 30 µM
GI50 (K-562 leukemia): 3.63 µM
TGI (K-562 leukemia): > 10 µM and 39 µM
GI50 (TK-10 renal): 0.535 µM
TGI (TK-10 renal): 1.89 µM and 5.34 µM
GI50 (NCI-H23 lung): > 10 µM
TGI (NCI-H23 lung): > 10 µM and 28.5 µM
GI50 (NCI-H226 lung): > 10 µM
TGI (NCI-H226 lung): > 10 µM and 27.1 µM
GI50 (A549 NSCLC): 6.98 µM
TGI (A549 NSCLC): > 10 µM and 24.6 µM
TGI (OVCAR-4 ovarian): > 10 µM and 23.5 µM
GI50 (786-0 renal): 2.18 µM
TGI (786-0 renal): 5.95 µM and 8.32 µM
GI50 (MALME-3M melanoma): > 10 µM
TGI (MALME-3M melanoma): > 10 µM and 26.8 µM
TGI (RXF 393 renal): 5.55 µM and 8.04 µM
GI50 (A498 renal): 2 µM
TGI (A498 renal): 7.6 µM and 14.8 µM
GI50 (DU-145 prostate): > 10 µM
TGI (DU-145 prostate): > 10 µM and 38.5 µM
GI50 (HL-60(TB) leukemia): > 10 µM
TGI (HL-60(TB) leukemia): > 10 µM and 6.98 µM
GI50 (SNB-75 CNS): > 10 µM
TGI (SNB-75 CNS): > 10 µM and 20 µM
GI50 (MDA-MB-435): 5.91 µM
TGI (MDA-MB-435): > 10 µM and 30.3 µM
GI50 (SN12C renal): 3.87 µM
TGI (SN12C renal): > 10 µM and 15.7 µM
TGI (DMS 273 small cell lung): 14.9 µM
GI50 (SF-268 CNS): 4.42 µM
TGI (SF-268 CNS): > 10 µM and 24.6 µM
GI50 (SF-539 CNS): > 10 µM
TGI (SF-539 CNS): > 10 µM and 29.7 µM
TGI (HCT-15 colon): 9.86 µM and 8.72 µM
TGI (DMS 114 small cell lung): 26.5 µM
TGI (SW-620 colon): > 10 µM and 22.4 µM
GI50 (ACHN renal): 6.37 µM
TGI (ACHN renal): > 10 µM and 25.8 µM
GI50 (M14 melanoma): 1.87 µM
TGI (M14 melanoma): 4.41 µM and 12.7 µM
GI50 (LOX IMVI melanoma): 3.89 µM
TGI (LOX IMVI melanoma): > 10 µM and 22 µM
TGI (M19-MEL melanoma): 14.8 µM
GI50 (HCT-116 colon): 5.24 µM
TGI (HCT-116 colon): > 10 µM and 20.6 µM
GI50 (PC-3 prostate): 0.707 µM
TGI (PC-3 prostate): 3.46 µM and 3.75 µM
GI50 (CCRF-CEM leukemia): 2.73 µM
TGI (CCRF-CEM leukemia): 7.55 µM and 10.5 µM
GI50 (KM12 colon): 1.15 µM
TGI (KM12 colon): 2.97 µM and 1.46 µM
GI50 (NCI-H522 lung): 1.89 µM
TGI (NCI-H522 lung): 5.64 µM and 12.2 µM
GI50 (CAKI-1 renal): 2.03 µM
TGI (CAKI-1 renal): > 10 µM and 15.6 µM
GI50 (UACC-62 melanoma): 1.17 µM
TGI (UACC-62 melanoma): > 10 µM and 22.5 µM
GI50 (MOLT-4 leukemia): 2.15 µM
TGI (MOLT-4 leukemia): 5.57 µM and 11.3 µM
GI50 (SR leukemia): 0.87 µM
TGI (SR leukemia): 4.2 µM and 5.74 µM
GI50 (UO-31 renal): 4.27 µM
TGI (UO-31 renal): > 10 µM and 21.7 µM
GI50 (BT-549 breast): 5.76 µM
TGI (BT-549 breast): > 10 µM and 27.5 µM
TGI (MDA-N): 26.5 µM
GI50 (MCF7 breast): > 10 µM
TGI (MCF7 breast): > 10 µM and 34 µM
GI50 (MDA-MB-231 breast): 4.81 µM
TGI (MDA-MB-231 breast): > 10 µM and 20.8 µM
GI50 (IGROV1 ovarian): 1.3 µM
TGI (IGROV1 ovarian): 4.29 µM and 10.8 µM
GI50 (RPMI-8226 leukemia): 1.18 µM
TGI (RPMI-8226 leukemia): > 10 µM and 13.8 µM
GI50 (HS 578T breast): > 10 µM
TGI (HS 578T breast): > 10 µM and 27.5 µM
TGI (KM20L2 colon): 6.16 µM
GI50 (OVCAR-8 ovarian): > 10 µM
TGI (OVCAR-8 ovarian): > 10 µM and 28.8 µM
GI50 (NCI-H460 lung): 2.85 µM
TGI (NCI-H460 lung): > 10 µM and 7.65 µM
GI50 (EKVX NSCLC): > 10 µM
TGI (EKVX NSCLC): > 10 µM and 26.8 µM
GI50 (UACC-257 melanoma): > 10 µM
TGI (UACC-257 melanoma): > 10 µM and 45.7 µM
GI50 (U251 CNS): 4.02 µM
TGI (U251 CNS): > 10 µM and 26.1 µM
GI50 (SK-MEL-28 melanoma): > 10 µM
TGI (SK-MEL-28 melanoma): > 10 µM and 34.4 µM
TGI (SNB-78 CNS): 46.2 µM
TGI (XF 498 CNS): 29.1 µM
